Measurements from PubChem BioAssay (NCI).
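Assay format: 96-well plates, 48-hour exposure. At the GI50, growth is halved. The concentration for full growth arrest is given as TGI.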

Legend:
Test in all cases: DTP human tumour cell line panel, 48 h
RXF 393 renal = system: RXF 393 renal
HT29 colon = system: HT29 colon
A498 renal = system: A498 renal
BT-549 breast = system: BT-549 breast
SNB-19 CNS = system: SNB-19 CNS
SF-539 CNS = system: SF-539 CNS
SF-268 CNS = system: SF-268 CNS
OVCAR-4 ovarian = system: OVCAR-4 ovarian
CAKI-1 renal = system: CAKI-1 renal
ACHN renal = system: ACHN renal
OVCAR-5 ovarian = system: OVCAR-5 ovarian
HCT-116 colon = system: HCT-116 colon
CCRF-CEM leukemia = system: CCRF-CEM leukemia
UACC-257 melanoma = system: UACC-257 melanoma
MOLT-4 leukemia = system: MOLT-4 leukemia
COLO 205 colon = system: COLO 205 colon
UACC-62 melanoma = system: UACC-62 melanoma
MDA-MB-231 breast = system: MDA-MB-231 breast
SNB-75 CNS = system: SNB-75 CNS
A549 NSCLC = system: A549 NSCLC
NCI-H522 lung = system: NCI-H522 lung
LOX IMVI melanoma = system: LOX IMVI melanoma
IGROV1 ovarian = system: IGROV1 ovarian
NCI-H23 lung = system: NCI-H23 lung
SW-620 colon = system: SW-620 colon
HCT-15 colon = system: HCT-15 colon
NCI/ADR-RES ovarian = system: NCI/ADR-RES ovarian
HCC-2998 colon = system: HCC-2998 colon
SK-OV-3 ovarian = system: SK-OV-3 ovarian
PC-3 prostate = system: PC-3 prostate
U251 CNS = system: U251 CNS
SK-MEL-28 melanoma = system: SK-MEL-28 melanoma
NCI-H460 lung = system: NCI-H460 lung
SK-MEL-2 melanoma = system: SK-MEL-2 melanoma
K-562 leukemia = system: K-562 leukemia
SK-MEL-5 melanoma = system: SK-MEL-5 melanoma
DU-145 prostate = system: DU-145 prostate
OVCAR-3 ovarian = system: OVCAR-3 ovarian
MALME-3M melanoma = system: MALME-3M melanoma
SN12C renal = system: SN12C renal
HOP-92 NSCLC = system: HOP-92 NSCLC
HL-60(TB) leukemia = system: HL-60(TB) leukemia
HS 578T breast = system: HS 578T breast
786-0 renal = system: 786-0 renal
EKVX NSCLC = system: EKVX NSCLC
MDA-MB-435 = system: MDA-MB-435
RPMI-8226 leukemia = system: RPMI-8226 leukemia
UO-31 renal = system: UO-31 renal
HOP-62 NSCLC = system: HOP-62 NSCLC
OVCAR-8 ovarian = system: OVCAR-8 ovarian
MCF7 breast = system: MCF7 breast
SF-295 CNS = system: SF-295 CNS
TK-10 renal = system: TK-10 renal
M14 melanoma = system: M14 melanoma

Work on `CC/C=C\C/C=C\C[C@H]1C/C=C2/C(=O)C=C[C@@H]2C/C=C\CCC(=O)O1` yielded a GI50 (RXF 393 renal) of 0.686 µM, a TGI (RXF 393 renal) of 1.56 µM and a GI50 (HT29 colon) of 0.828 µM. For the same compound, the TGI (HT29 colon) was 2.04 µM, the GI50 (A498 renal) was 5.38 µM and the TGI (A498 renal) was 10.2 µM. For the same compound, the GI50 (BT-549 breast) was 1.1 µM, the TGI (BT-549 breast) was 3.61 µM and the GI50 (SNB-19 CNS) was 3.15 µM. For the same compound, the TGI (SNB-19 CNS) was 8.45 µM, the GI50 (SF-539 CNS) was 0.995 µM and the TGI (SF-539 CNS) was 3.46 µM. The GI50 (SF-268 CNS) was 1.54 µM, the TGI (SF-268 CNS) was 9.1 µM and the GI50 (OVCAR-4 ovarian) was 1.32 µM. For the same compound, the TGI (OVCAR-4 ovarian) was 5.66 µM, the GI50 (CAKI-1 renal) was 1.29 µM and the TGI (CAKI-1 renal) was 6.35 µM. The GI50 (ACHN renal) was 0.727 µM, the TGI (ACHN renal) was 1.49 µM and the GI50 (OVCAR-5 ovarian) was 1.35 µM. For the same compound, the TGI (OVCAR-5 ovarian) was 4.95 µM, the GI50 (HCT-116 colon) was 0.634 µM and the TGI (HCT-116 colon) was 1.47 µM. The GI50 (CCRF-CEM leukemia) was 1.13 µM, the TGI (CCRF-CEM leukemia) was 7.05 µM and the GI50 (UACC-257 melanoma) was 1.85 µM. It also gave a TGI (UACC-257 melanoma) of 7.82 µM, a GI50 (MOLT-4 leukemia) of 0.976 µM and a TGI (MOLT-4 leukemia) of 4.37 µM. It also gave a GI50 (COLO 205 colon) of 1.04 µM, a TGI (COLO 205 colon) of 2.82 µM and a GI50 (UACC-62 melanoma) of 0.767 µM. It also gave a TGI (UACC-62 melanoma) of 2.4 µM, a GI50 (MDA-MB-231 breast) of 1.07 µM and a TGI (MDA-MB-231 breast) of 6.03 µM. It also gave a GI50 (SNB-75 CNS) of 1.4 µM, a TGI (SNB-75 CNS) of 6.92 µM and a GI50 (A549 NSCLC) of 1.22 µM. For the same compound, the TGI (A549 NSCLC) was 10.9 µM, the GI50 (NCI-H522 lung) was 0.524 µM and the TGI (NCI-H522 lung) was 1.42 µM. For the same compound, the GI50 (LOX IMVI melanoma) was 0.563 µM, the TGI (LOX IMVI melanoma) was 1.11 µM and the GI50 (IGROV1 ovarian) was 1.57 µM. The TGI (IGROV1 ovarian) was 5.9 µM, the GI50 (NCI-H23 lung) was 0.793 µM and the TGI (NCI-H23 lung) was 2.79 µM. The GI50 (SW-620 colon) was 1.65 µM, the TGI (SW-620 colon) was 6.04 µM and the GI50 (HCT-15 colon) was 0.735 µM. It also gave a TGI (HCT-15 colon) of 2.15 µM, a GI50 (NCI/ADR-RES ovarian) of 0.746 µM and a TGI (NCI/ADR-RES ovarian) of 1.91 µM. It also gave a GI50 (HCC-2998 colon) of 0.871 µM, a TGI (HCC-2998 colon) of 2.32 µM and a GI50 (SK-OV-3 ovarian) of 7.18 µM. It also gave a TGI (SK-OV-3 ovarian) of 20.1 µM, a GI50 (PC-3 prostate) of 1.18 µM and a TGI (PC-3 prostate) of 4.36 µM. For the same compound, the GI50 (U251 CNS) was 1.16 µM, the TGI (U251 CNS) was 3.69 µM and the GI50 (SK-MEL-28 melanoma) was 1.02 µM. For the same compound, the TGI (SK-MEL-28 melanoma) was 3.14 µM, the GI50 (NCI-H460 lung) was 1.46 µM and the TGI (NCI-H460 lung) was 16.3 µM. For the same compound, the GI50 (SK-MEL-2 melanoma) was 0.871 µM, the TGI (SK-MEL-2 melanoma) was 2.42 µM and the GI50 (K-562 leukemia) was 1.17 µM. The TGI (K-562 leukemia) was 9.1 µM, the GI50 (SK-MEL-5 melanoma) was 0.776 µM and the TGI (SK-MEL-5 melanoma) was 2.1 µM. The GI50 (DU-145 prostate) was 1.19 µM, the TGI (DU-145 prostate) was 5.04 µM and the GI50 (OVCAR-3 ovarian) was 1.08 µM. It also gave a TGI (OVCAR-3 ovarian) of 3.52 µM, a GI50 (MALME-3M melanoma) of 1.96 µM and a TGI (MALME-3M melanoma) of 8.04 µM. For the same compound, the GI50 (SN12C renal) was 1.12 µM, the TGI (SN12C renal) was 9.69 µM and the GI50 (HOP-92 NSCLC) was 3.93 µM. It also gave a TGI (HOP-92 NSCLC) of 10.4 µM, a GI50 (HL-60(TB) leukemia) of 1.22 µM and a TGI (HL-60(TB) leukemia) of 3.14 µM. The GI50 (HS 578T breast) was 6.08 µM, the TGI (HS 578T breast) was 33.2 µM and the GI50 (786-0 renal) was 1.4 µM. The TGI (786-0 renal) was 4.97 µM, the GI50 (EKVX NSCLC) was 1.51 µM and the TGI (EKVX NSCLC) was 8.3 µM. It also gave a GI50 (MDA-MB-435) of 0.912 µM, a TGI (MDA-MB-435) of 2.75 µM and a GI50 (RPMI-8226 leukemia) of 0.847 µM. The TGI (RPMI-8226 leukemia) was 2.43 µM, the GI50 (UO-31 renal) was 1.36 µM and the TGI (UO-31 renal) was 4.94 µM. The GI50 (HOP-62 NSCLC) was 1.18 µM, the TGI (HOP-62 NSCLC) was 4.65 µM and the GI50 (OVCAR-8 ovarian) was 1.14 µM. It also gave a TGI (OVCAR-8 ovarian) of 4.19 µM, a GI50 (MCF7 breast) of 0.936 µM and a TGI (MCF7 breast) of 7.51 µM. The GI50 (SF-295 CNS) was 1.83 µM, the TGI (SF-295 CNS) was 6.86 µM and the GI50 (TK-10 renal) was 1.26 µM. It also gave a TGI (TK-10 renal) of 3.43 µM, a GI50 (M14 melanoma) of 1.02 µM and a TGI (M14 melanoma) of 4.61 µM.
